Assay results taken from PMC10454678, “Synthesis of hydroxy benzoin/benzil analogs and investigation of their antioxidant, antimicrobial, enzyme inhibition, and cytotoxic activities” (Turkish Journal of Chemistry, 2021).
Converted amounts (≈) assume the structure as drawn. “And” between values parts separate entries of the source, which are not always exact repeats. Equal values may be shown once. Read-outs that look alike come from different tables or passages of the source.

Experiments:
[1] = test system: human retinal normal cell line (RPE); test: MTT cell proliferation, RPE
[2] = test system: human cervical cancer cell line (HeLa); test: MTT cell proliferation, HeLa
[3] = test system: Escherichia coli ATCC 25922; test: MIC, microdilution, E. coli; type: cell-based; conditions: Escherichia coli
Bacillus cereus Roma709 = test: MIC, microdilution, B. cereus; type: cell-based; conditions: Bacillus cereus
[4] = Ferric reducing antioxidant power (FRAP) assay; conditions: Trolox equivalents; compounds 2 mg/mL, 30 °C 30 min, 595 nm
[5] = Copper ions reducing activity (CUPRAC); conditions: Trolox equivalents; 30 min dark, room temperature, 450 nm
[6] = test system: Staphylococcus aureus ATCC25923; test: MIC, microdilution, S. aureus; type: cell-based; conditions: Staphylococcus aureus
α-glucosidase = test: α-Glucosidase inhibition; type: biochemical; conditions: PNPG, pH 6.8, 37 °C, 400 nm
Protocol: It was incubated at 37 °C for 15 min. Similarly, an enzyme-free blank was prepared. The reaction was stopped when sodium carbonate (50 μL, 0.2 M) was added.

[7] = test system: Mycobacterium smegmatis ATCC607; test: MIC, microdilution, M. smegmatis; type: cell-based; conditions: Mycolicibacterium smegmatis, ATCC607, 72 h, Tub., BHI broth, 36 °C, read-out: MIC Ms
[8] = test system: Pseudomonas aeruginosa ATCC27853; test: MIC, microdilution, P. aeruginosa; type: cell-based; conditions: Pseudomonas aeruginosa, ATCC27853; Gram (-); Mueller-Hinton broth, 18-24 h, 36 °C; read-out: MIC Pa
[9] = test system: Candida albicans ATCC60193; test: MIC, microdilution, C. albicans; type: cell-based; conditions: Candida albicans, ATCC60193; fungus; YEPD broth, 48 h, 36 °C; read-out: MIC Ca
[10] = test system: Yersinia pseudotuberculosis ATCC911; test: microbe, parasite or virus in culture; type: cell-based; conditions: Yersinia pseudotuberculosis, ATCC911, read-out: MIC Yp
[11] = test system: Streptococcus mutans RSKK07038; test: MIC, microdilution, S. mutans; type: cell-based; conditions: Streptococcus mutans, RSKK07038; Gram (+); BHI broth, 72 h, 36 °C; read-out: MIC Sm
acetylcholinesterase = acetylcholinesterase (Homo sapiens, UniProt P22303); test: biochemical; conditions: Tris-HCl pH 8.0, 25 °C, 405 nm; read-out: AChE IC50 (converted)
acetylcholinesterase, sequence (P22303 32-614, species assumed): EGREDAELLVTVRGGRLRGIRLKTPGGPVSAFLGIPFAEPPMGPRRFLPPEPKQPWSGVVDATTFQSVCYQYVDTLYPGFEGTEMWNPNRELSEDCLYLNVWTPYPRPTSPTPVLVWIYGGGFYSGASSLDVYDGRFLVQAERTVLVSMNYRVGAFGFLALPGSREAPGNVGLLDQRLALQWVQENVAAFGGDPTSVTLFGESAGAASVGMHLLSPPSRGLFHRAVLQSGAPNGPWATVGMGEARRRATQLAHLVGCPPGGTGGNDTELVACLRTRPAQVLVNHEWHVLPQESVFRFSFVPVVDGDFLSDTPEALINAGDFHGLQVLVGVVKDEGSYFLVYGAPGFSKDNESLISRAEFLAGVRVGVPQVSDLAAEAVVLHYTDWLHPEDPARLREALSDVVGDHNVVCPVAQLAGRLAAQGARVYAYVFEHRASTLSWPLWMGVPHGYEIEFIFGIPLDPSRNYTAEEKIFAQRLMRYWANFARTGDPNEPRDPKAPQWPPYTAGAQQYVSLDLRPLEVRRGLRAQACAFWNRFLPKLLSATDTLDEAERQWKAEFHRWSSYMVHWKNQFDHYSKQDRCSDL

[12] = DPPH radical scavenging activity; conditions: 0.1 mM DPPH, 50 min dark, 517 nm
butyrylcholinesterase = butyrylcholinesterase (Homo sapiens, UniProt P06276); test: biochemical; conditions: Tris-HCl pH 8.0, 25 °C, 405 nm; read-out: BChE IC50 (converted)
butyrylcholinesterase, sequence (P06276 29-602): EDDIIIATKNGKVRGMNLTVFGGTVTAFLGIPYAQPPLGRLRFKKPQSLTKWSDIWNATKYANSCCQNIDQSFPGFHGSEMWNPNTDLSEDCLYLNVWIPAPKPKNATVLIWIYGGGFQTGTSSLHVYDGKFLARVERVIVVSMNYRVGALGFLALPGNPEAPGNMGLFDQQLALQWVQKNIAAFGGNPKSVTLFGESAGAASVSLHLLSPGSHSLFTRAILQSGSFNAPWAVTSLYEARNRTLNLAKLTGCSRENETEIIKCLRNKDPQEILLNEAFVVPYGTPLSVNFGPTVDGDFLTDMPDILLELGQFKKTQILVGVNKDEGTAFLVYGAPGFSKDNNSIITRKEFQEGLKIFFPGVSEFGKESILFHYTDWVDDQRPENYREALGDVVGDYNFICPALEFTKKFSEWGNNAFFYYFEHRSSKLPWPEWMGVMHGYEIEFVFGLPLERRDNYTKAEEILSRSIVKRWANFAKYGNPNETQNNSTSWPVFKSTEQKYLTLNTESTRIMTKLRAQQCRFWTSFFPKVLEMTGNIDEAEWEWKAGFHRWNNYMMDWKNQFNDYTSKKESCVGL

[13] = test system: Enterococcus faecalis ATCC29212; test: MIC, microdilution, E. faecalis; type: cell-based; conditions: Enterococcus faecalis, ATCC29212; Gram (+); Mueller-Hinton broth, 18-24 h, 36 °C; read-out: MIC Ef
[14] = ATCC25922, Gram (-), Mueller-Hinton broth, 18-24 h, 36 °C, read-out: MIC Ec
[15] = ROMA709, Gram (+), Mueller-Hinton broth, 18-24 h, 36 °C, read-out: MIC Bc
[16] = ATCC25923, Gram (+), Mueller-Hinton broth, 18-24 h, 36 °C, read-out: MIC Sa

| Structure (SMILES) | MIC (Bacillus cereus Roma709; ROMA709, read-out: MIC Bc) | FRAP, the iron reducing antioxidant power [4] | CUPRAC, copper reducing antioxidant power [5] | MIC ([6]; ATCC25923, read-out: MIC Sa) | α-Glucosidase IC50 (α-glucosidase) | MIC [7] | MIC [8] | MIC [9] | MIC [10] | MIC [11] | IC50 (acetylcholinesterase) | DPPH radical scavenging capacity (SC50) [12] | IC50 (butyrylcholinesterase) | MIC [3, 14] | MIC [13] | MIC (Bacillus cereus Roma709; [15]) | MIC [6, 16] | also measured |
| --- | --- | --- | --- | --- | --- | --- | --- | --- | --- | --- | --- | --- | --- | --- | --- | --- | --- | --- |
| N.N.[Cl][Pt][Cl] [Cisplatin, reference compound] | – | – | – | – | – | – | – | – | – | – | – | – | – | – | – | – | – | GI50 RPE normal cell line ([1]; MTT, 24 h incubation): 1.56 µg/mL; IC50 RPE normal cell line ([1]; MTT, 24 h incubation): 58.77 µg/mL; GI50 HeLa cell line ([2]; MTT, 24 h incubation): 1.13 µg/mL; IC50 HeLa cell line ([2]; MTT, 24 h incubation): 42.76 µg/mL |
| O=C(c1ccc(O)cc1)C(O)c1ccccc1 (stereo not shown) [Compound 2, 2-Hydroxy-1-(4-hydroxyphenyl)-2-phenylethanone] | 1030 µg/mL (≈ 4520 µM) | 1881 ± 75.5 μg/mL trolox/gram DW | 140.00 ± 11.5 μg/mL trolox/gram DW | 1030 µg/mL (≈ 4520 µM) | 547.97 µg/mL | 129 µg/mL (≈ 565 µM) | 2060 µg/mL (≈ 9050 µM) | 516 µg/mL (≈ 2260 µM) | 1030 µg/mL (≈ 4520 µM) | 1030 µg/mL (≈ 4520 µM) | 1070 µM | 13.78 ± 1.3 mg/mL | 323 µM | – | – | – | – | MIC ([3]; ATCC25922, read-out: MIC Ec): 1030 µg/mL (≈ 4520 µM) |
| O=C(c1cc(O)cc(O)c1)C(O)c1ccccc1 (stereo not shown) [Compound 3, 2-Hydroxy-1-(3,5-dihydroxyphenyl)-2-phenylethanone] | 207 µg/mL (≈ 848 µM) | 1111 ± 47.9 μg/mL trolox/gram DW | 90.00 ± 6.8 μg/mL trolox/gram DW | 207 µg/mL (≈ 848 µM) | 812.10 µg/mL | 103 µg/mL (≈ 422 µM) | 207 µg/mL (≈ 848 µM) | 414 µg/mL (≈ 1700 µM) | 1660 µg/mL (≈ 6780 µM) | 414 µg/mL (≈ 1700 µM) | 1630 µM | 8.72 ± 0.26 mg/mL | 592 µM | 820 µg/mL (≈ 3360 µM) | 820 µg/mL (≈ 3360 µM) | – | – | – |
| O=C(c1cccc(O)c1)C(O)c1cccc(O)c1 (stereo not shown) [Compound 4, 1,2-Bis(3-hydroxyphenyl)-2-hydroxyethanone] | – | 1534 ± 75.0 μg/mL trolox/gram DW | 398.33 ± 22.1 μg/mL trolox/gram DW | – | >1000 µg/mL | 160 µg/mL (≈ 655 µM) | 320 µg/mL (≈ 1310 µM) | 1280 µg/mL (≈ 5240 µM) | 640 µg/mL (≈ 2620 µM) | – | 454 µM | 8.16 ± 0.3 mg/mL | 462 µM | 320 µg/mL (≈ 1310 µM) | – | 160 µg/mL (≈ 655 µM) | 640 µg/mL (≈ 2620 µM) | GI50 ([1]; Homo sapiens, 24 h, read-out: GI50 RPE normal cell line): 1.15 µg/mL (≈ 4.71 µM); IC50 ([1]; Homo sapiens, 24 h, read-out: IC50 RPE normal cell line): 30.3 µg/mL (≈ 124 µM); GI50 ([2]; Homo sapiens, HeLa, 24 h, read-out: GI50 HeLa cell line): 1.12 µg/mL (≈ 4.59 µM); IC50 ([2]; Homo sapiens, HeLa, 24 h, read-out: IC50 HeLa cell line): 42.7 µg/mL (≈ 175 µM) |
| O=C(c1ccc(O)cc1)C(O)c1cccc(O)c1 (stereo not shown) [Compound 5, 2-Hydroxy-2-(3-hydroxyphenyl)-1-(4-hydroxyphenyl)ethanone] | – | 2090 ± 101.4 μg/mL trolox/gram DW | 1113.33±64 μg/mL trolox/gram DW and 1113.33 ± 64.9 μg/mL trolox/gram DW | – | >1000 µg/mL | 48 µg/mL (≈ 197 µM) | 96 µg/mL (≈ 393 µM) | – | 775 µg/mL (≈ 3170 µM) | 48 µg/mL (≈ 197 µM) | 3230 µM | 8.12 ± 1.2 mg/mL | > 4090 µM | 387 µg/mL (≈ 1580 µM) | 1550 µg/mL (≈ 6350 µM) | 48 µg/mL (≈ 197 µM) | 96 µg/mL (≈ 393 µM) | – |
